pIC50: −log10 of the molar value.
Biological target: T1, Human plasma kallikrein (Homo sapiens, UniProt P03952)
T1 construct: yields a heavy chain (371 amino acids) and a light chain (248 amino acids); purchased Enzyme Research Laboratories
Assay: Kallikrein Assay (fluorogenic substrate hydrolysis, AFC release)
Assay type: biochemical
Conditions: purified Human plasma kallikrein 0.5 nM; substrate Acetyl-K—P—R-AFC 100 mM; 50 mM HEPES pH 7.4
Experimental: The effectiveness of a compound of the present invention as an inhibitor of Kallikrein can be determined using a relevant purified serine protease, and an appropriate synthetic substrate. The rate of hydrolysis of the chromogenic or fluorogenic substrate by the relevant serine protease was measured both in the absence and presence of compounds of the present invention. Assays were conducted at room temperature or at 37° C. […] A decrease in the rate of fluorescence change in the presence of inhibitor is indicative of enzyme inhibition. Such methods are known to one skilled in the art. The results of this assay are expressed as the half-maximal inhibitory concentrations (IC50), or the inhibitory constant, Ki.
Kallikrein determinations were made in 50 mM HEPES buffer at pH 7.4 containing 150 mM NaCl, 5 mM CaCl2), and 0.1% PEG 8000 (polyethylene glycol; Fisher Scientific). Determinations were made using purified Human plasma kallikrein at a final concentration of 0.5 nM (Enzyme Research Laboratories) and the synthetic substrate, Acetyl-K—P—R-AFC (Sigma #C6608) at a concentration of […].
Activity assays were performed by diluting a stock solution of substrate at least tenfold to a final concentration ≤0.2 Km into a solution containing enzyme or enzyme equilibrated with inhibitor. Times required to achieve equilibration between enzyme and inhibitor were determined in control experiments. The reactions were performed under linear progress curve conditions and fluorescence increase measured at 405 Ex/510 Em nm. Values were converted to percent inhibition of the control reaction (after subtracting 100% Inhibition value). IC50 was determined by inflection point from a four parameter logistic curve fit. Ki was calculated using the Cheng Prusoff equation, Ki=IC50/(1+([S]/Km)).

T1 sequence (P03952 391-638 limits assumed): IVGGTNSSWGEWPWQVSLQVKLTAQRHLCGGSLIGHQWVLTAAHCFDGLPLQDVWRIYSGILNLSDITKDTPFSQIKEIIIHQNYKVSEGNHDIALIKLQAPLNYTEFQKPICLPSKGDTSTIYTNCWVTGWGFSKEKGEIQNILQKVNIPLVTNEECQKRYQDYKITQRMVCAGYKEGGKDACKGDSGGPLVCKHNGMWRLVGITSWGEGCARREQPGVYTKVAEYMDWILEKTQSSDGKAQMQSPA
T1 sequence (P03952 20-390 partner limits assumed): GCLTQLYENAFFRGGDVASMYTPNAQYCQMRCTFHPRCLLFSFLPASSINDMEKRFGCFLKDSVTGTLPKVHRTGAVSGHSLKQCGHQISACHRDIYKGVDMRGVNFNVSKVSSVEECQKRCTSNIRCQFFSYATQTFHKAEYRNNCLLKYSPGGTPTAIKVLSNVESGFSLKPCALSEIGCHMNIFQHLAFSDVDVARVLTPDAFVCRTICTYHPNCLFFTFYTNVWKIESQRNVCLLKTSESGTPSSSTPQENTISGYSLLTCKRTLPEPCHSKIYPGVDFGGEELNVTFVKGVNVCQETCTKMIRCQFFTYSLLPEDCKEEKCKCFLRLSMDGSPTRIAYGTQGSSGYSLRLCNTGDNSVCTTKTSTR

pIC50 | Compound
7.99 | CC(c1cnc(N2C[C@H]3C[C@H]3C2=O)nc1)n1cc(C(=O)N[C@H]2C[C@@H](c3cc(Cl)ccc3C#N)C2)c(C#N)n1 (single isomer, unassigned) [Example 18, N-((cis)-3-(5-chloro-2-cyanophenyl)cyclobutyl)-3-cyano-1-((S or R)-1-(2-((1R,5S)-2-oxo-3-azabicyclo[3.1.0]hexan-3-yl)pyrimidin-5-yl)ethyl)-1H-pyrazole-4-carboxamide]
8.00 | Cc1ccc(C#N)c([C@H]2C[C@@H](NC(=O)c3cnn(C(C)c4cnc(N5C[C@H]6C[C@H]6C5=O)c(C)n4)c3)C2)n1 (single isomer, unassigned) [Example 52, N-((cis)-3-(3-cyano-6-methylpyridin-2-yl)cyclobutyl)-1-((S or R)-1-(6-methyl-5-((1R,5S)-2-oxo-3-azabicyclo[3.1.0]hexan-3-yl)pyrazin-2-yl)ethyl)-1H-pyrazole-4-carboxamide]
9.52 | Cc1cc(N2C[C@H]3C[C@H]3C2=O)ncc1C(C)n1cc(C(=O)N[C@H]2C[C@@H](c3cc(Cl)ccc3C#N)C2)c(C)n1 (single isomer, unassigned) [Example 19, N-((cis)-3-(5-chloro-2-cyanophenyl)cyclobutyl)-3-methyl-1-((R or S)-1-(4-methyl-6-((1R,5S)-2-oxo-3-azabicyclo[3.1.0]hexan-3-yl)pyridin-3-yl)ethyl)-1H-pyrazole-4-carboxamide]
8.43 | CC(c1ncc(N2C[C@H]3C[C@H]3C2=O)cc1F)n1cc(C(=O)N[C@H]2C[C@@H](c3cc(Cl)ccc3C#N)C2)cn1 (single isomer, unassigned) [Example 26, N-((cis)-3-(5-chloro-2-cyanophenyl)cyclobutyl)-1-((R or S)-1-(3-fluoro-5-((1R,5S)-2-oxo-3-azabicyclo[3.1.0]hexan-3-yl)pyridin-2-yl)ethyl)-1H-pyrazole-4-carboxamide]
6.62 | Cc1cc(N2C[C@H]3C[C@H]3C2=O)nnc1C(C)n1cc(C(=O)N[C@H]2C[C@@H](c3cc(Cl)ccc3C#N)C2)cn1 (single isomer, unassigned) [Example 54, N-((cis)-3-(5-chloro-2-cyanophenyl)cyclobutyl)-1-((S or R)-1-(4-methyl-6-((1R,5S)-2-oxo-3-azabicyclo[3.1.0]hexan-3-yl)pyridazin-3-yl)ethyl)-1H-pyrazole-4-carboxamide]
7.95 | Cc1ccnc([C@H]2C[C@@H](NC(=O)c3cnn(C(C)c4cnc(N5C[C@H]6C[C@H]6C5=O)cc4C)c3)C2)c1 (single isomer, unassigned) [Example 32, 1-((R or S)-1-(4-methyl-6-((1R,5S)-2-oxo-3-azabicyclo[3.1.0]hexan-3-yl)pyridin-3-yl)ethyl)-N-((cis)-3-(4-methylpyridin-2-yl)cyclobutyl)-1H-pyrazole-4-carboxamide]
9.70 | Cc1c(C(C)n2cc(C(=O)N[C@H]3C[C@@H](c4cc(Cl)ccc4C#N)C3)nn2)cnc(N2C[C@H]3C[C@H]3C2=O)c1F (single isomer, unassigned) [Example 96, N-((cis)-3-(5-chloro-2-cyanophenyl)cyclobutyl)-1-((R or S)-1-(5-fluoro-4-methyl-6-((1R,5S)-2-oxo-3-azabicyclo[3.1.0]hexan-3-yl)pyridin-3-yl)ethyl)-1H-1,2,3-triazole-4-carboxamide]
8.52 | COc1nc(C(C)n2cc(C(=O)N[C@H]3C[C@@H](c4cc(Cl)ccc4C#N)C3)nn2)cnc1N1C[C@H]2C[C@H]2C1=O (single isomer, unassigned) [Example 122, N-((cis)-3-(5-chloro-2-cyanophenyl)cyclobutyl)-1-((S or R)-1-(6-methoxy-5-((1R,5S)-2-oxo-3-azabicyclo[3.1.0]hexan-3-yl)pyrazin-2-yl)ethyl)-1H-1,2,3-triazole-4-carboxamide]
8.09 | COCc1nn(C(C)c2cnc(N3C[C@H]4C[C@H]4C3=O)cc2C)cc1C(=O)N[C@H]1C[C@@H](c2cc(Cl)ccc2C#N)C1 (single isomer, unassigned) [Example 50, N-((cis)-3-(5-chloro-2-cyanophenyl)cyclobutyl)-3-(methoxymethyl)-1-((S or R)-1-(4-methyl-6-((1R,5S)-2-oxo-3-azabicyclo[3.1.0]hexan-3-yl)pyridin-3-yl)ethyl)-1H-pyrazole-4-carboxamide]
7.02 | Cc1c([C@@H](C)n2cc(C(=O)N[C@H]3C[C@@H](c4cc(Cl)ccc4C#N)C3)nn2)nc(N2C[C@H]3C[C@H]3C2=O)n1C (single isomer, unassigned) [Example 161]
9.05 | COc1cc(N2C[C@H]3C[C@H]3C2=O)ncc1[C@H](C)n1cc(C(=O)N[C@H]2C[C@@H](c3cc(Cl)ccc3C#N)C2)cn1 (single isomer, unassigned) [Example 11]
9.40 | Cc1c([C@H](C)n2cc(C(=O)N[C@H]3C[C@@](C)(c4cc(Cl)ccc4C(N)=O)C3)nn2)cnc(N2C[C@H]3C[C@H]3C2=O)c1C [Example 142, N-((cis)-3-(2-carbamoyl-5-chlorophenyl)-3-methylcyclobutyl)-1-((S)-1-(4,5-dimethyl-6-((1R,5S)-2-oxo-3-azabicyclo[3.1.0]hexan-3-yl)pyridin-3-yl)ethyl)-1H-1,2,3-triazole-4-carboxamide]
8.43 | Cc1c([C@H](C)n2cc(C(=O)N[C@H]3C[C@@H](c4cc(Cl)ccc4C#N)C3)nn2)nc(N2C[C@H]3C[C@H]3C2=O)n1C (single isomer, unassigned) [Example 162]
9.22 | Cc1cc([C@@H](C)n2cc(C(=O)N[C@H]3C[C@@H](c4cc(Cl)ccc4C#N)C3)nn2)cnc1N1C[C@H]2C[C@H]2C1=O (single isomer, unassigned) [Example 55]
6.38 | Cc1c(C(C)n2cc(C(=O)NC3CC(c4cccc(Cl)c4)C3O)nn2)cnc(N2C[C@H]3C[C@H]3C2=O)c1F (single isomer, unassigned) [Example 126, N-((1S,2S,3S or 1R,2R,3R)-3-(3-chlorophenyl)-2-hydroxycyclobutyl)-1-((S or R)-1-(5-fluoro-4-methyl-6-((1R,5S)-2-oxo-3-azabicyclo[3.1.0]hexan-3-yl)pyridin-3-yl)ethyl)-1H-1,2,3-triazole-4-carboxamide]
7.76 | CC(c1cnc(N2C[C@H]3C[C@H]3C2=O)nc1)n1cc(C(=O)N[C@H]2C[C@@H](c3cc(Cl)ccc3C#N)C2)cn1 (single isomer, unassigned) [Example 4, N-((cis)-3-(5-chloro-2-cyanophenyl)cyclobutyl)-1-((S or R)-1-(2-((1R,5S)-2-oxo-3-azabicyclo[3.1.0]hexan-3-yl)pyrimidin-5-yl)ethyl)-1H-pyrazole-4-carboxamide carboxamide]
7.95 | C[C@@H](c1cncc(N2C[C@H]3C[C@H]3C2=O)c1)n1cc(C(=O)N[C@H]2C[C@@H](c3cc(Cl)ccc3C#N)C2)nn1 (single isomer, unassigned) [Example 138]
8.19 | CC(c1cnc(N2C[C@H]3C[C@H]3C2=O)c(N)c1)n1cc(C(=O)N[C@H]2C[C@@H](c3cc(Cl)ccc3C#N)C2)nn1 (single isomer, unassigned) [Example 108, 1-((S or R)-1-(5-amino-6-((1R,5S)-2-oxo-3-azabicyclo[3.1.0]hexan-3-yl)pyridin-3-yl)ethyl)-N-((cis)-3-(5-chloro-2-cyanophenyl)cyclobutyl)-1H-1,2,3-triazole-4-carboxamide]
7.59 | Cc1cc(N2C[C@H]3C[C@H]3C2=O)ncc1C(C)n1cc(C(=O)N[C@@H]2CC[C@H](c3cc(Cl)ccc3C#N)C2)nn1 (single isomer, unassigned) [Example 63, N-((1R,3S)-3-(5-chloro-2-cyanophenyl)cyclopentyl)-1-((S or R)-1-(4-methyl-6-((1R,5S)-2-oxo-3-azabicyclo[3.1.0]hexan-3-yl)pyridin-3-yl)ethyl)-1H-1,2,3-triazole-4-carboxamide]
7.20 | Cc1ccc(C#N)c([C@H]2C[C@@H](NC(=O)c3cn(C(C)c4cnc(N5C[C@H]6C[C@H]6C5=O)cc4C)nn3)C2)c1 (single isomer, unassigned) [Example 66, N-((cis)-3-(2-cyano-5-methylphenyl)cyclobutyl)-1-((R or S)-1-(4-methyl-6-((1R,5S)-2-oxo-3-azabicyclo[3.1.0]hexan-3-yl)pyridin-3-yl)ethyl)-1H-1,2,3-triazole-4-carboxamide]
8.92 | Cc1c(N2C[C@H]3C[C@H]3C2=O)ncc(C(C)n2cc(C(=O)NC3CC(c4cc(Cl)ccc4C#N)C3)cn2)c1F (single isomer, unassigned) [Example 166]
7.84 | Cc1cc(N2C[C@H]3C[C@H]3C2=O)ncc1C(C)n1cc(C(=O)N[C@H]2C[C@@H](c3cc(Cl)ccc3C#N)C2)nn1 (single isomer, unassigned) [Example 60, N-((cis)-3-(5-chloro-2-cyanophenyl)cyclobutyl)-1-((S or R)-1-(4-methyl-6-((1R,5S)-2-oxo-3-azabicyclo[3.1.0]hexan-3-yl)pyridin-3-yl)ethyl)-1H-1,2,3-triazole-4-carboxamide]
8.80 | C[C@H](c1cncc(N2C[C@H]3C[C@H]3C2=O)c1)n1cc(C(=O)N[C@H]2C[C@@H](c3cc(Cl)ccc3C#N)C2)nn1 (single isomer, unassigned) [Example 137]
